# In ChEMBL document CHEMBL1201862, “PubChem BioAssay data set” (2004):
# Activity calls are given as the source filed them.
# Key:
# [1] = biological target: T1, Heat shock factor protein 1 (Mus musculus, UniProt P38532); experiment: decrease of HSF1-responsive luciferase luminescence – cell-based, NIH3T3, dose retest, confirmation (AID 2382); format: functional;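 note: NIH3T3 fibroblasts with HSF1-driven luciferase reporter stressed by proteasome inhibitor MG132; luminescence from HSF1-driven luciferase expression after 8 hours of MG132 stress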
# T1 sequence (P38532 whole entry): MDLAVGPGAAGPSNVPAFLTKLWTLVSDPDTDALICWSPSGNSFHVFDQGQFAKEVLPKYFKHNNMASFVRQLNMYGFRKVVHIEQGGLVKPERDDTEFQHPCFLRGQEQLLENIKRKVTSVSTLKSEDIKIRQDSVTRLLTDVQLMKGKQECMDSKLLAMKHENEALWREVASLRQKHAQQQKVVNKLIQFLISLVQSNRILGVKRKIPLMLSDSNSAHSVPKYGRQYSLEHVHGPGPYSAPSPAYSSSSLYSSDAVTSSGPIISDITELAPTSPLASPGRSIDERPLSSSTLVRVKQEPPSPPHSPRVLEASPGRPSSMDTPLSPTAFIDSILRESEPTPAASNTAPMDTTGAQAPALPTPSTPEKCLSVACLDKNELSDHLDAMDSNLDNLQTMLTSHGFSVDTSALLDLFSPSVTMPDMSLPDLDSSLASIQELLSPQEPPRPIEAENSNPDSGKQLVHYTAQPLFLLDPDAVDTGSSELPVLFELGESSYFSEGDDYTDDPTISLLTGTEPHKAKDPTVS
# [2] = biological target: Nonstructural protein 1 (Influenza A virus, UniProt Q194T2); format: functional, Influenza A virus (A/California/07/2009(H1N1))
# Chain of Nonstructural protein 1 (Q194T2 whole entry): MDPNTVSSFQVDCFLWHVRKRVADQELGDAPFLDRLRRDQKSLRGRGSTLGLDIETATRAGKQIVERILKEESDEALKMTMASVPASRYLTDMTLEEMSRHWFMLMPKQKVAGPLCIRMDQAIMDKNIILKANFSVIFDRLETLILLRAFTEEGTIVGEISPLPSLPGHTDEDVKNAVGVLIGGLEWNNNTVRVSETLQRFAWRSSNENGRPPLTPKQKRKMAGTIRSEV
# [3] = biological target: Cytochrome P450 2C9 (Homo sapiens, UniProt P11712)
# Chain of Cytochrome P450 2C9 (P11712 whole entry): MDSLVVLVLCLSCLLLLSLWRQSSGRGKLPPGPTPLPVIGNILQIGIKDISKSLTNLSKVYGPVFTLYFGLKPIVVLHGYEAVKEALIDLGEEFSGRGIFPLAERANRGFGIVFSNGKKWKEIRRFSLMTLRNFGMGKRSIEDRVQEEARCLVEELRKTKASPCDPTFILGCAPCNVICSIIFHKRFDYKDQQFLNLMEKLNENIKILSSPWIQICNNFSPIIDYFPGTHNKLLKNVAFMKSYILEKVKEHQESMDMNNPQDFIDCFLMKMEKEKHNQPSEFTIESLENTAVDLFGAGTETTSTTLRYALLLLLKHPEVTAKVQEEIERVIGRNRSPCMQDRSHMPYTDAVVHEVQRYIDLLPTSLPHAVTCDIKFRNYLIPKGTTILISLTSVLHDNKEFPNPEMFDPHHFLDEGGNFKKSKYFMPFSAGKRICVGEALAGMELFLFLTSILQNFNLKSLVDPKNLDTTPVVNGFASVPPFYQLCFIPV
# [4] = biological target: Cytochrome P450 3A4 (Homo sapiens, UniProt P08684);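 note: CYP3A4 tested as one member of a cytochrome P450 panel screen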
# Chain of Cytochrome P450 3A4 (P08684 whole entry): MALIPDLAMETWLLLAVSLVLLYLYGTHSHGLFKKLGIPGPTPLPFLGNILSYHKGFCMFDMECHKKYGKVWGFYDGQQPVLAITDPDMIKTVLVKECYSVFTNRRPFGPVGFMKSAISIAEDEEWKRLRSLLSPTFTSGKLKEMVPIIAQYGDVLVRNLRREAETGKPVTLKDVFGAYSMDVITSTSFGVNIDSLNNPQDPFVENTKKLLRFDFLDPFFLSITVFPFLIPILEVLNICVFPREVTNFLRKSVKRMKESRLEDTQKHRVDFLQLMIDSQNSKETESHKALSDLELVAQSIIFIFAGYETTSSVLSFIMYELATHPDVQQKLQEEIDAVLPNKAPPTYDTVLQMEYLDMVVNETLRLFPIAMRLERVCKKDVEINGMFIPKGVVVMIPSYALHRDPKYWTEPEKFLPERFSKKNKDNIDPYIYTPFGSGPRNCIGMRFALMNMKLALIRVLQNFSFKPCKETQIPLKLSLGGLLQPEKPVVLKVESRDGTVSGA
# [5] = biological target: T2, Cytochrome P450 1A2 (Homo sapiens, UniProt P05177);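 note: PubChem cytochrome P450 panel assay, CYP1A2 panel member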
# T2 sequence (P05177 whole entry): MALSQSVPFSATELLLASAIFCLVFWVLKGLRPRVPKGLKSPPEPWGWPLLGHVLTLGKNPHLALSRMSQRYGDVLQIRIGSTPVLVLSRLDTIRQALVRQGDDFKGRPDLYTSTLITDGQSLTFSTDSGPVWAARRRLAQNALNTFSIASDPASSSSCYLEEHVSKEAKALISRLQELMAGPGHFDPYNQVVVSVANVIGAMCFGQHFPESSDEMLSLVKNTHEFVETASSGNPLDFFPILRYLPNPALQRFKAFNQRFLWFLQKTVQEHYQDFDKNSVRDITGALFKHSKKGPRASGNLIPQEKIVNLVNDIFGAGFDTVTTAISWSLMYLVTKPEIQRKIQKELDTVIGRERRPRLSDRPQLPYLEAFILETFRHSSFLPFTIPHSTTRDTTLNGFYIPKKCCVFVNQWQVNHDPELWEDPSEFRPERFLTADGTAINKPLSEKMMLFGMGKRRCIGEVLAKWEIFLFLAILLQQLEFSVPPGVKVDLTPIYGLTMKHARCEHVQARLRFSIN
# [6] = cells; format: functional, cell-based
# [7] = cells; format: functional, cell-based; remark: listed apart in the source
# [8] = Luminescence Cell-Based Dose Response HTS to Identify Inhibitors of 5'UTR Stem-Loop Driven Prion Protein mRNA Translation in H4 Neuroglioblastoma Cells. [Related pubchem assays: 1827 (Project Summary), 1813 (Primary HTS)]; format: functional
# [9] = luciferase reporter signal suppression in cells – H4 neuroglioma cells, luminescence, dose response (AID 1990); format: functional, cell-based
# [10] = alpha-synuclein stem-loop luciferase translation blockers – H4 neuroglioma cells, luminescence, confirmation (AID 1988); format: functional, cell-based
# [11] = biological target: Cytochrome P450 2C19 (Homo sapiens, UniProt P33261); experiment: Cytochrome panel assay with activity outcomes. Panel member name: p450-cyp2c19 Compounds with AC50 equal or less than 10 uM are considered active; format: functional; conditions: read-out: AC50
# Chain of Cytochrome P450 2C19 (P33261 whole entry): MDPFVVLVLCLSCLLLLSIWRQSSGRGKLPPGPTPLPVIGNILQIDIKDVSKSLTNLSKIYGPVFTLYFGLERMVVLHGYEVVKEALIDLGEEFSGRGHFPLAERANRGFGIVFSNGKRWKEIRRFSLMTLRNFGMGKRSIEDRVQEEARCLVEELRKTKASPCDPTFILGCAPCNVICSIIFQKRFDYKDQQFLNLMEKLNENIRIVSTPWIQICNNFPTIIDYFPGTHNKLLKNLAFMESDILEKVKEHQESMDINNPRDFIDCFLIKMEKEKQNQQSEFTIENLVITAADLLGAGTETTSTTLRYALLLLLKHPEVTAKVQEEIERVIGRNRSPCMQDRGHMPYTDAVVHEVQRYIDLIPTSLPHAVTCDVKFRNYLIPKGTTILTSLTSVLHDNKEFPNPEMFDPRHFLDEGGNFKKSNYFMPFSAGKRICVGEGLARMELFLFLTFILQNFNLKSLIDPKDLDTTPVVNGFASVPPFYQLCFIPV
# [12] = biological target: Cytochrome P450 2D6 (Homo sapiens, UniProt P10635);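 note: CYP2D6 member of a cytochrome P450 panel assay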
# Chain of Cytochrome P450 2D6 (P10635 whole entry): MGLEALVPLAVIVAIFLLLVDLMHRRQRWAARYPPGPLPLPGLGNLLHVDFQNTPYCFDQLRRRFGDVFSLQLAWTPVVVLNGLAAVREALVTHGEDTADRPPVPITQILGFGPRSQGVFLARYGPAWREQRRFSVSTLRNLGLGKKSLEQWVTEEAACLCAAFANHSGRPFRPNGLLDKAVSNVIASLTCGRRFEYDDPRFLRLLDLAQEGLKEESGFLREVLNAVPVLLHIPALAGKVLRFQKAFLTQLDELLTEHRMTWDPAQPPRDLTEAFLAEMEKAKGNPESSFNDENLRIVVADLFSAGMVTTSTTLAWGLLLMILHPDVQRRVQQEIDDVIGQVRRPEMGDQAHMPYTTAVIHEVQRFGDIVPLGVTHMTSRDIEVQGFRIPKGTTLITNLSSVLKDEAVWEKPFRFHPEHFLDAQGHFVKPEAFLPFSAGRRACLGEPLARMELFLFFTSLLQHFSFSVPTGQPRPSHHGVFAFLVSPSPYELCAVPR
# [13] = biological target: Luciferin 4-monooxygenase (Photinus pyralis, UniProt P08659); experiment: inhibition of purified Photinus pyralis luciferase – biochemical, luminescence, dose response (AID 1891)
# Chain of Luciferin 4-monooxygenase (P08659 whole entry): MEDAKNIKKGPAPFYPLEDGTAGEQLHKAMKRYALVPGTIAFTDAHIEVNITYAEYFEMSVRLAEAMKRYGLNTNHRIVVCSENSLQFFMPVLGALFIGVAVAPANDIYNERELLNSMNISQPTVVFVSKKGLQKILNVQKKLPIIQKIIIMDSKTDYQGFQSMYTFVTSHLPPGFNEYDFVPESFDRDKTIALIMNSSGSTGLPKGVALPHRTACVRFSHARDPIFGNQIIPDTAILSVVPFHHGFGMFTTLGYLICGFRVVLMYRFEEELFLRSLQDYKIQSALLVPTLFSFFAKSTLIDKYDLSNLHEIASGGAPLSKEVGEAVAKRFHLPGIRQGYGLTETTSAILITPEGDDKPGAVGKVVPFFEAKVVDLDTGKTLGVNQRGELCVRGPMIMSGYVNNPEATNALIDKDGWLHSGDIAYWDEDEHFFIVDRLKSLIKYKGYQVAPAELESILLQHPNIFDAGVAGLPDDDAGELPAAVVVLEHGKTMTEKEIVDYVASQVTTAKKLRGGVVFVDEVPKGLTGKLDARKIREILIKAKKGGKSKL
# [14] = Luminescence Cell-Based Dose Confirmation HTS to Identify Inhibitors of Platelet Dense Granule Release. [Related pubchem assays: 1663 (Primary HTS), 1678 (Summary of Project)]; format: functional
# [15] = viability of uninfected HEp-2 cells – cell-based, HTS, cytotoxicity control for RSV inhibitor project, dose response (AID 2410); format: functional; conditions: human respiratory syncytial virus
# [16] = test system: INS1; experiment: INS-1E survival protection against cytokine death – cell-based, luminescence, retest, dose response (AID 449756); format: functional; conditions: Rattus norvegicus, INS1;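 note: cell death triggered by IL-1 beta plus TNF-alpha plus IFN-gamma mixture; protective hits raise ATP signal compared with cytokine alone wells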
# [17] = biological target: T1, Heat shock factor protein 1; experiment: enhancement of HSF1-driven luciferase signal – cell-based, NIH3T3, luminescence, dose retest, confirmation (AID 435004); format: functional;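 note: stress induced by proteasome inhibitor MG132 added 30 min after compound; luciferase reporter driven by HSF1 response element in NIH3T3 cells; actives raise luminescence as potentiators of the MG132 stress response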
compound,measurement,setting,value
Cc1ccc([N+](=O)[O-])cc1NC(=O)CSc1n[nH]c(-c2cccnc2)n1,EC50,[1],> 195 µM (not active)
COc1ccc(N2CCN(CCCNC(=O)c3cc4sccc4n3C)CC2)cc1,IC50,[2],39.4 µM (active)
Cc1cccc(C)c1NC(=O)C[S+]([O-])CC(=O)NCCCc1ccccc1 (stereo not given),AC50,[3],22.4 µM (inconclusive)
same,AC50,[4],14.1 µM (inconclusive)
COc1ccc(Oc2ncc3nc(-c4ccc(F)cc4)c(=O)n(Cc4cccs4)c3n2)cc1,AC50,[3],3.16 µM (inconclusive)
same,AC50,[5],5.01 µM (inconclusive)
Cc1ccc(-c2cc(C(=O)Nc3cccnc3)[nH]n2)c(O)c1C,EC50,[6],> 350 µM (not active)
same,EC50,[7],7.01 µM (active)
Cc1cc(C)c(C(=O)N2CCCC(N3CCN(c4cccc(C(F)(F)F)c4)CC3)C2)o1 (stereo not given),EC50,[6],> 350 µM (not active)
same,EC50,[7],> 350 µM (not active)
COc1ccc(CN2CCN(S(=O)(=O)c3ccccc3)CC2)cc1Br,EC50,[8],> 120 µM (not active)
same,EC50,[9],> 120 µM (not active)
same,EC50,[1],> 195 µM (not active)
same,EC50,[10],> 120 µM (not active)
Cc1ccc(N2C(=O)/C(=C/N3CCN(C(=O)c4ccco4)CC3)C(=O)NC2=S)cc1C,AC50,[11],39.8 µM (inconclusive)
same,AC50,[3],20 µM (inconclusive)
same,AC50,[4],25.1 µM (inconclusive)
Cc1noc(C)c1-c1nc(NCCN2CCOCC2)c2ccccc2n1,AC50,[12],25.1 µM (inconclusive)
CC(C)CCNC(=O)Cn1cc2c(n1)CCCCC2,EC50,[1],> 195 µM (not active)
CN(Cc1ccco1)c1ccnc(-c2cccc(C#N)c2)n1,AC50,[12],20 µM (inconclusive)
Cc1cccc(Oc2nc3ccccn3c(=O)c2/C=C(\C#N)C(=O)NC2CCS(=O)(=O)C2)c1C (stereo not given),EC50,[13],> 112 µM (not active)
same,EC50,[14],4.44 µM (active)
CCOc1ccc2c(c1)c1nnc(SCC3CCCO3)nc1n2C (stereo not given),EC50,[6],> 350 µM (not active)
same,EC50,[7],52.4 µM (active)
same,CC50,[15],> 50 µM (active)
O=C1/C(=C\c2ccc(-c3ccccc3[N+](=O)[O-])o2)C(c2ccccc2)=NN1c1ccccc1,IC50,[2],21.3 µM (active)
O=C(c1ccco1)N1CCC[C@@]2(CCN(Cc3nccs3)C2)C1,AC50,[11],39.8 µM (inconclusive)
same,AC50,[4],7.94 µM (inconclusive)
same,AC50,[12],10 µM (inconclusive)
COCCn1c(=O)c(-c2cccc(C#N)c2)nc2cnc(N3CCN(C)CC3)nc21,AC50,[3],3.98 µM (inconclusive)
same,AC50,[5],15.8 µM (inconclusive)
CCC(Cc1ccccc1)NS(=O)(=O)c1c(C)nc2sccn2c1=O (stereo not given),EC50,[13],> 112 µM (not active)
same,EC50,[14],> 112 µM (not active)
Cc1noc(COc2ccc(OCc3nc(C)no3)cc2)n1,AC50,[11],17.8 µM (inconclusive)
same,AC50,[3],39.8 µM (inconclusive)
C=CCn1c2ccccc2c2nnc(SCC(=O)O)nc21,EC50,[1],> 195 µM (not active)
OCC[C@@H]1C[C@@H](O)[C@H](O)[C@@]2(Cc3ccccc3CO2)O1,EC50,[1],> 195 µM (not active)
O/C(=C(\C([S-])=Nc1cccc2ccccc12)[n+]1ccccc1)c1cccs1,EC50,[6],> 350 µM (not active)
same,EC50,[7],> 350 µM (not active)
CC1=NN(C(N)=S)C(C)(C)C1,EC50,[1],> 195 µM (not active)
COC(=O)Cc1ccc(NC(S)=NC(C)(C)C)cc1,EC50,[6],> 350 µM (not active)
same,EC50,[7],> 350 µM (not active)
Cc1ccc(CNC(=O)c2cnc3ccccc3n2)cc1,EC50,[13],> 112 µM (not active)
same,EC50,[14],> 112 µM (not active)
CC(=O)c1ccc(NC(=O)Nc2ccc([N+](=O)[O-])cc2C)cc1,EC50,[13],> 112 µM (not active)
same,EC50,[14],> 112 µM (not active)
Cc1ccc(S(=O)(=O)Nc2cccnc2)c(C)c1C,EC50,[1],> 195 µM (not active)
Cc1ccc(C(OC(=O)c2ccco2)C(=O)NC2CCCCC2)cc1 (stereo not given),AC50,[3],39.8 µM (inconclusive)
COc1cccc(N2C(=O)N(c3ccccc3)C3CS(=O)(=O)CC32)c1 (stereo not given),EC50,[1],> 195 µM (not active)
COC(=O)[C@@]1(Cc2ccc(F)cc2)[C@H]2c3cc(C(=O)N4CCCC4)n(Cc4ccc(C)o4)c3C[C@H]2CN1C(=O)c1ccccc1,AC50,[5],10 µM (inconclusive)
same,AC50,[12],39.8 µM (inconclusive)
COc1ccc(/C=C2\CCc3c2nc2ccccc2c3C(=O)O)cc1OC,EC50,[13],6.42 µM (active)
same,EC50,[14],73.5 µM (active)
Cc1cc(C(=O)NCc2ccccc2)no1,AC50,[11],28.2 µM (inconclusive)
same,AC50,[5],0.398 µM (inconclusive)
same,AC50,[12],20 µM (inconclusive)
COc1ccc(-n2c(-c3cccc(OC)c3)nc(=S)c3c2CCCC3)cc1,EC50,[1],> 195 µM (not active)
Cc1cc2nc(-c3ccc(NC(=O)c4cccnc4)cc3)oc2cc1C,AC50,[16],3.87 µM (active)
same,EC50,[13],> 112 µM (not active)
same,EC50,[14],> 112 µM (not active)
COc1ccc(CNc2nc(-c3cccc(NS(C)(=O)=O)c3)nc3ccccc23)c(OC)c1,AC50,[12],12.6 µM (inconclusive)
CC1CCCN(C(=O)c2ccc3c(c2NCCO)C(=O)c2ccccc2C3=O)C1 (stereo not given),IC50,[2],22 µM (active)
O=C(CSc1nnnn1C1CCCC1)Nc1ccc(F)cc1,AC50,[3],31.6 µM (inconclusive)
same,AC50,[5],25.1 µM (inconclusive)
CCOC(=O)N1CCC(Nc2ncnc3c2cnn3-c2ccc(Cl)cc2)CC1,EC50,[1],89.4 µM (active)
Cc1onc(-c2c(F)cccc2Cl)c1C(=O)NCC1COc2ccccc2O1 (stereo not given),EC50,[13],> 112 µM (not active)
same,EC50,[14],> 112 µM (not active)
CN1CCN(c2nc(-c3cccc(C#N)c3)nc3ccccc23)CC1,AC50,[12],12.6 µM (inconclusive)
CCn1c(N2CCC(Cc3ccccc3)CC2)nc2c1c(=O)[nH]c(=O)n2C,EC50,[6],> 350 µM (not active)
same,EC50,[7],> 350 µM (not active)
CCCCN(CC)C(=O)Cc1ccccc1OC,AC50,[12],28.2 µM (inconclusive)
CCCC(C)NC(=O)CN1C(=O)NC2(CCc3ccccc32)C1=O (stereo not given),EC50,[6],> 350 µM (not active)
same,EC50,[7],> 350 µM (not active)
CCS(=O)(=O)c1ccc2c(c1)N(S(C)(=O)=O)CC(C(=O)NCCOC)O2 (stereo not given),AC50,[3],35.5 µM (inconclusive)
Cc1cc(NC(=O)COc2ccc(Cl)cc2Cl)n(-c2ccccc2)n1,AC50,[12],7.08 µM (inconclusive)
c1cc(CNCCCN2CCOCC2)ccn1,AC50,[4],31.6 µM (inconclusive)
same,AC50,[12],15.8 µM (inconclusive)
CN(C)c1ccc(/C=C2/C(=O)Nc3ccccc32)cc1,AC50,[3],39.8 µM (inconclusive)
CC1CN=C(/C=C(\O)c2ccc(Br)cc2)C(=O)N1 (stereo not given),EC50,[8],11.6 µM (inconclusive)
same,EC50,[6],> 350 µM (not active)
same,EC50,[7],35.6 µM (active)
O=C(N/N=C/c1ccc2c(c1)OCO2)/C(=C/c1ccc2c(c1)OCO2)NC(=O)c1ccccc1,AC50,[3],12.6 µM (inconclusive)
C/C(=N\Nc1nc(-c2ccccc2)cs1)c1cccs1,EC50,[1],> 195 µM (not active)
CCc1ccccc1N(CC(=O)N/N=C/c1ccc(OC(=O)OC)c(OC)c1)S(C)(=O)=O,EC50,[13],> 112 µM (not active)
same,EC50,[14],43.7 µM (active)
Cc1c(O)ccc(/C=N/Nc2ncccc2[N+](=O)[O-])c1O,EC50,[17],> 260 µM (inconclusive)
same,EC50,[13],0.176 µM (active)
same,EC50,[14],1.12 µM (active)
CN(C)/C=N/C(=O)c1cn(-c2ccc(F)cc2)c(=O)c2ccccc12,EC50,[6],> 350 µM (not active)
same,EC50,[7],> 350 µM (not active)
